Results from ChEMBL document CHEMBL3822455, “Aryl or heteroaryl substituted aminal derivatives of HCV NS5A inhibitor MK-8742” (Bioorg Med Chem Lett, 2016).
pEC50: −log10 of the molar value.

Experiments:
Type in all cases: functional, organism-based, Hepacivirus hominis
Hepatitis C virus [1] = experiment: Antiviral activity against HCV genotype 1a harboring NS5A L31V mutant assessed as replicon RNA level measured after 3 days by real-time PCR method; conditions: subtype 1a, 72 h
Hepatitis C virus [2] = experiment: Antiviral activity against HCV genotype 2b assessed as replicon RNA level measured after 3 days by real-time PCR method; conditions: 72 h
Hepatitis C virus [3] = experiment: Antiviral activity against HCV genotype 1b assessed as replicon RNA level measured after 3 days by real-time PCR method; conditions: 72 h
Hepatitis C virus [4] = experiment: Antiviral activity against HCV genotype 3a assessed as replicon RNA level measured after 3 days by real-time PCR method; conditions: 72 h
Hepatitis C virus [5] = experiment: Antiviral activity against HCV genotype 1a harboring NS5A Y93H mutant assessed as replicon RNA level measured after 3 days by real-time PCR method; conditions: subtype 1a, 72 h
Hepatitis C virus [6] = experiment: Antiviral activity against HCV genotype 1a assessed as replicon RNA level measured after 3 days by real-time PCR method; conditions: subtype 1a, 72 h
Hepatitis C virus [7] = experiment: Antiviral activity against HCV genotype 4a assessed as replicon RNA level measured after 3 days by real-time PCR method; conditions: 72 h
Hepatitis C virus [8] = experiment: Antiviral activity against HCV genotype 2a assessed as replicon RNA level measured after 3 days by real-time PCR method; conditions: 72 h

| SMILES | pEC50 (Hepatitis C virus [1]) | pEC50 (Hepatitis C virus [2]) | pEC50 (Hepatitis C virus [3]) | pEC50 (Hepatitis C virus [4]) | pEC50 (Hepatitis C virus [5]) | pEC50 (Hepatitis C virus [6]) | pEC50 (Hepatitis C virus [7]) | pEC50 (Hepatitis C virus [8]) |
| --- | --- | --- | --- | --- | --- | --- | --- | --- |
| COC(=O)N[C@H](C(=O)N1CCC[C@H]1c1ncc(-c2ccc3c(c2)OC(c2cccc(-c4ncon4)c2)n2c-3cc3cc(-c4cnc([C@@H]5CCCN5C(=O)[C@@H](NC(=O)OC)C(C)C)[nH]4)ccc32)[nH]1)C(C)C (mixture of isomers) | 9.70 | 8.40 | 11.22 | 9.40 | 8.22 | 11.05 | 10.70 | 11.15 |
| COC(=O)N[C@H](C(=O)N1CCC[C@H]1c1ncc(-c2ccc3c(c2)OC(c2cccc(C(=O)O)c2)n2c-3cc3cc(-c4cnc([C@@H]5CCCN5C(=O)[C@@H](NC(=O)OC)C(C)C)[nH]4)ccc32)[nH]1)C(C)C (mixture of isomers) | 6.67 | < 6.00 | 8.62 | 6.54 | < 6.00 | 8.55 | 8.29 | 7.93 |
| COC(=O)N[C@H](C(=O)N1CCC[C@H]1c1ncc(-c2ccc3c(c2)OC(c2cccc(N4CCOCC4)c2)n2c-3cc3cc(-c4cnc([C@@H]5CCCN5C(=O)[C@@H](NC(=O)OC)C(C)C)[nH]4)ccc32)[nH]1)C(C)C (mixture of isomers) | 9.52 | 7.77 | 11.22 | 9.92 | 7.28 | 11.40 | 11.15 | 11.70 |
| CCc1cccc(C2Oc3cc(-c4cnc([C@@H]5CCCN5C(=O)[C@@H](NC(=O)OC)C(C)C)[nH]4)ccc3-c3cc4cc(-c5cnc([C@@H]6CCCN6C(=O)[C@@H](NC(=O)OC)C(C)C)[nH]5)ccc4n32)c1 (mixture of isomers) | 9.29 | 8.52 | 11.70 | 9.70 | 8.00 | 11.70 | 12.00 | 10.70 |
| COC(=O)N[C@H](C(=O)N1CCC[C@H]1c1ncc(-c2ccc3c(c2)OC(c2ccc(C4CC4)cc2)n2c-3cc3cc(-c4cnc([C@@H]5CCCN5C(=O)[C@@H](NC(=O)OC)C(C)C)[nH]4)ccc32)[nH]1)C(C)C (mixture of isomers) | 10.40 | 9.30 | > 10.70 | 10.52 | 9.30 | 11.52 | > 9.70 | > 9.70 |
| COC(=O)N[C@H](C(=O)N1CCC[C@H]1c1ncc(-c2ccc3c(c2)OC(c2ccc(F)c(F)c2)n2c-3cc3cc(-c4cnc([C@@H]5CCCN5C(=O)[C@@H](NC(=O)OC)C(C)C)[nH]4)ccc32)[nH]1)C(C)C (some centres not stated) | 9.30 | 9.00 | 11.52 | – | 8.52 | 11.40 | 11.10 | 11.30 |
| COC(=O)N[C@H](C(=O)N1CCC[C@H]1c1ncc(-c2ccc3c(c2)OC(c2ccc(-c4cccc(-c5ccccc5)c4)cc2)n2c-3cc3cc(-c4cnc([C@@H]5CCCN5C(=O)[C@@H](NC(=O)OC)C(C)C)[nH]4)ccc32)[nH]1)C(C)C (mixture of isomers) | > 8.70 | > 8.70 | 11.52 | 9.70 | 8.70 | > 10.70 | > 10.70 | > 10.70 |
| COC(=O)N[C@H](C(=O)N1CCC[C@H]1c1ncc(-c2ccc3c(c2)OC(c2ccc(-c4ccc5cncn5c4)cc2)n2c-3cc3cc(-c4cnc([C@@H]5CCCN5C(=O)[C@@H](NC(=O)OC)C(C)C)[nH]4)ccc32)[nH]1)C(C)C (mixture of isomers) | 8.70 | 8.40 | 11.00 | 9.00 | 7.70 | 10.52 | 10.52 | 10.40 |
| COC(=O)N[C@H](C(=O)N1CCC[C@H]1c1ncc(-c2ccc3c(c2)OC(c2cccc(C(F)(F)F)c2)n2c-3cc3cc(-c4cnc([C@@H]5CCCN5C(=O)[C@@H](NC(=O)OC)C(C)C)[nH]4)ccc32)[nH]1)C(C)C (mixture of isomers) | 9.21 | 8.70 | 11.52 | 10.40 | 8.70 | 11.52 | 11.00 | 11.52 |
| COC(=O)N[C@H](C(=O)N1CCC[C@H]1c1ncc(-c2ccc3c(c2)OC(c2cccc(C4CC4)c2)n2c-3cc3cc(-c4cnc([C@@H]5CCCN5C(=O)[C@@H](NC(=O)OC)C(C)C)[nH]4)ccc32)[nH]1)C(C)C (mixture of isomers) | 9.22 | 8.15 | 11.70 | 9.52 | 7.92 | 11.40 | 11.70 | 11.00 |
| COC(=O)N[C@H](C(=O)N1CCC[C@H]1c1ncc(-c2ccc3c(c2)OC(c2cccnc2)n2c-3cc3cc(-c4cnc([C@@H]5CCCN5C(=O)[C@@H](NC(=O)OC)C(C)C)[nH]4)ccc32)[nH]1)C(C)C (mixture of isomers) | 9.05 | 8.70 | 11.05 | 8.70 | 8.15 | 11.30 | 10.52 | 10.40 |
| COC(=O)N[C@H](C(=O)N1CCC[C@H]1c1ncc(-c2ccc3c(c2)OC(c2cccc(-c4cccnc4)c2)n2c-3cc3cc(-c4cnc([C@@H]5CCCN5C(=O)[C@@H](NC(=O)OC)C(C)C)[nH]4)ccc32)[nH]1)C(C)C (mixture of isomers) | 9.70 | 8.10 | 11.10 | 10.10 | 7.59 | 11.22 | 11.52 | 11.40 |
| COC(=O)N[C@H](C(=O)N1CCC[C@H]1c1ncc(-c2ccc3c(c2)OC(c2ccc(-c4c(C)nn(C)c4C)cc2)n2c-3cc3cc(-c4cnc([C@@H]5CCCN5C(=O)[C@@H](NC(=O)OC)C(C)C)[nH]4)ccc32)[nH]1)C(C)C (mixture of isomers) | > 8.70 | 8.30 | 10.70 | 9.70 | 7.82 | 10.40 | 10.52 | 10.70 |
| COC(=O)N[C@H](C(=O)N1CCC[C@H]1c1ncc(-c2ccc3c(c2)OC(c2cccc(C(=O)N(C)C)c2)n2c-3cc3cc(-c4cnc([C@@H]5CCCN5C(=O)[C@@H](NC(=O)OC)C(C)C)[nH]4)ccc32)[nH]1)C(C)C (mixture of isomers) | 9.40 | 7.39 | 11.00 | < 9.00 | < 7.00 | 10.70 | 9.74 | 10.40 |
| COC(=O)N[C@H](C(=O)N1CCC[C@H]1c1ncc(-c2ccc3c(c2)OC(c2ccc(-c4ccccc4)cc2)n2c-3cc3cc(-c4cnc([C@@H]5CCCN5C(=O)[C@@H](NC(=O)OC)C(C)C)[nH]4)ccc32)[nH]1)C(C)C (mixture of isomers) | > 8.70 | > 8.70 | > 10.70 | > 9.70 | > 8.70 | > 10.70 | > 10.70 | > 9.70 |
| CNC(=O)c1cccc(C2Oc3cc(-c4cnc([C@@H]5CCCN5C(=O)[C@@H](NC(=O)OC)C(C)C)[nH]4)ccc3-c3cc4cc(-c5cnc([C@@H]6CCCN6C(=O)[C@@H](NC(=O)OC)C(C)C)[nH]5)ccc4n32)c1 (mixture of isomers) | > 8.00 | 7.62 | 11.00 | 9.05 | 6.84 | 10.22 | 9.74 | 10.05 |
